Consider six cell lines from the supplement of paper PMC10307832.

Experiment in all cases: relative viability (nuclei count vs DMSO), 5 days (fraction); higher = more cells survive
Compound in the assay “Metformin + Palbociclib”: CN(C)C(=N)NC(=N)N [Metformin] + CC(=O)c1c(C)c2cnc(Nc3ccc(N4CCNCC4)cn3)nc2n(C2CCCC2)c1=O [Palbociclib] (partner 0.5 µM)
In a few lines:
(§1)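 Relative viability equals treated-well nuclei counts divided by vehicle-well nuclei counts. Counts came from 4× images of lung cancer cell lines grown in 1536-well plates for 5 days after pin-tool dosing on the day after seeding. Dosing used one drug alone or a fixed anchor-drug dose plus five library-drug doses (not always all listed) in √10 steps, and values are medians of duplicate plates.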

Compound in the assay “Metformin + Alpelisib”: CN(C)C(=N)NC(=N)N [Metformin] + Cc1nc(NC(=O)N2CCC[C@H]2C(N)=O)sc1-c1ccnc(C(C)(C)C(F)(F)F)c1 [Alpelisib] (partner 2 µM)
The method in brief:
as §1

Compound in the assay “Apatinib + Pictilisib”: N#CC1(c2ccc(NC(=O)c3cccnc3NCc3ccncc3)cc2)CCCC1 [Apatinib] + CS(=O)(=O)N1CCN(Cc2cc3nc(-c4cccc5[nH]ncc45)nc(N4CCOCC4)c3s2)CC1 [Pictilisib] (partner 1 µM)
The method in brief:
as §1

Compound in the assay “Apatinib + Pemetrexed”: N#CC1(c2ccc(NC(=O)c3cccnc3NCc3ccncc3)cc2)CCCC1 [Apatinib] + Nc1nc2[nH]cc(CCc3ccc(C(=O)N[C@@H](CCC(=O)O)C(=O)O)cc3)c2c(=O)[nH]1 [Pemetrexed] (partner 0.2 µM)
In a few lines: as §1

NCI-H520: the relative viability with Metformin + Palbociclib (first compound 10 µM) was 0.271; with Metformin + Palbociclib (first compound 31.62 µM) it was 0.269; with Metformin + Palbociclib (first compound 100 µM), 0.277; with Metformin + Palbociclib (first compound 316.23 µM), 0.22; in the assay with Metformin + Palbociclib (first compound 1000 µM) it was 0.269; with Metformin + Alpelisib (first compound 10 µM), 0.764. The relative viability with Metformin + Alpelisib (first compound 31.62 µM) was 0.855; with Metformin + Alpelisib (first compound 100 µM), 0.948; in the assay with Metformin + Alpelisib (first compound 316.23 µM), 0.665; in the assay with Metformin + Alpelisib (first compound 1000 µM) it was 0.86; with Apatinib + Pictilisib (first compound 0.08 µM), 0.281; with Apatinib + Pictilisib (first compound 0.253 µM), 0.268. Moreover, the relative viability was 0.301 in the assay with Apatinib + Pictilisib (first compound 0.8 µM); 0.314 with Apatinib + Pictilisib (first compound 2.53 µM); 0.275 with Apatinib + Pictilisib (first compound 8 µM); 0.668 with Apatinib + Pemetrexed (first compound 0.08 µM); 0.678 in the assay with Apatinib + Pemetrexed (first compound 0.253 µM); 0.736 with Apatinib + Pemetrexed (first compound 0.8 µM). In addition, the results for the relative viability in the assay with Apatinib + Pemetrexed (first compound 2.53 µM) and with Apatinib + Pemetrexed (first compound 8 µM) were 0.552 and 0.322, respectively.
Take NCI-H2023: the relative viability with Metformin + Palbociclib (first compound 10 µM) was found to be 0.321; in the assay with Metformin + Palbociclib (first compound 31.62 µM) it was 0.341; with Metformin + Palbociclib (first compound 100 µM), 0.3; in the assay with Metformin + Palbociclib (first compound 316.23 µM) it was 0.285; in the assay with Metformin + Palbociclib (first compound 1000 µM) it was 0.237; in the assay with Metformin + Alpelisib (first compound 31.62 µM), 0.558. For the same cell line, the relative viability is 0.627 with Metformin + Alpelisib (first compound 100 µM); 0.506 with Metformin + Alpelisib (first compound 1000 µM); 0.269 in the assay with Apatinib + Pictilisib (first compound 0.08 µM); 0.228 with Apatinib + Pictilisib (first compound 0.253 µM); 0.209 with Apatinib + Pictilisib (first compound 0.8 µM); 0.209 with Apatinib + Pictilisib (first compound 2.53 µM). For the same cell line, the relative viability with Apatinib + Pictilisib (first compound 8 µM) was 0.231; with Apatinib + Pemetrexed (first compound 0.08 µM) it was 0.212; with Apatinib + Pemetrexed (first compound 0.253 µM) it was 0.278; in the assay with Apatinib + Pemetrexed (first compound 0.8 µM), 0.2; with Apatinib + Pemetrexed (first compound 2.53 µM), 0.191; with Apatinib + Pemetrexed (first compound 8 µM), 0.204.
Consider LXF-289, for which the relative viability with Metformin + Palbociclib (first compound 10 µM) was determined as 0.516; with Metformin + Palbociclib (first compound 31.62 µM), 0.557; with Metformin + Palbociclib (first compound 100 µM) it was 0.568; with Metformin + Palbociclib (first compound 316.23 µM) it was 0.535; with Metformin + Palbociclib (first compound 1000 µM), 0.564; in the assay with Metformin + Alpelisib (first compound 10 µM), 0.909. Besides, the relative viability with Metformin + Alpelisib (first compound 31.62 µM) stood at 0.97; with Metformin + Alpelisib (first compound 100 µM) it was 0.963; with Metformin + Alpelisib (first compound 316.23 µM), 0.943; with Metformin + Alpelisib (first compound 1000 µM), 1.01; with Apatinib + Pictilisib (first compound 0.08 µM), 0.838; in the assay with Apatinib + Pictilisib (first compound 0.253 µM), 0.828. Further, the relative viability in the assay with Apatinib + Pictilisib (first compound 0.8 µM) worked out at 0.76; with Apatinib + Pictilisib (first compound 2.53 µM), 0.714; with Apatinib + Pictilisib (first compound 8 µM), 0.72; in the assay with Apatinib + Pemetrexed (first compound 0.08 µM), 0.916; with Apatinib + Pemetrexed (first compound 0.253 µM), 0.908; with Apatinib + Pemetrexed (first compound 0.8 µM), 0.818. Further, the relative viability with Apatinib + Pemetrexed (first compound 2.53 µM) is 0.692; with Apatinib + Pemetrexed (first compound 8 µM) it was 0.886.
Regarding EPLC-272H, the relative viability was found to be 0.294 with Metformin + Palbociclib (first compound 10 µM); 0.32 with Metformin + Palbociclib (first compound 31.62 µM); 0.339 with Metformin + Palbociclib (first compound 100 µM); 0.311 in the assay with Metformin + Palbociclib (first compound 316.23 µM); 0.391 with Metformin + Palbociclib (first compound 1000 µM); 1.15 with Metformin + Alpelisib (first compound 10 µM). Moreover, the relative viability with Metformin + Alpelisib (first compound 31.62 µM) was determined as 1.04; with Metformin + Alpelisib (first compound 100 µM), 1.1; in the assay with Metformin + Alpelisib (first compound 316.23 µM) it was 1.04; in the assay with Metformin + Alpelisib (first compound 1000 µM), 1.13; in the assay with Apatinib + Pictilisib (first compound 0.08 µM), 0.351; with Apatinib + Pictilisib (first compound 0.253 µM), 0.331. The relative viability was determined as 0.357 with Apatinib + Pictilisib (first compound 0.8 µM); 0.324 with Apatinib + Pictilisib (first compound 2.53 µM); 0.349 in the assay with Apatinib + Pictilisib (first compound 8 µM); 0.275 with Apatinib + Pemetrexed (first compound 0.08 µM); 0.333 in the assay with Apatinib + Pemetrexed (first compound 0.253 µM); 0.359 with Apatinib + Pemetrexed (first compound 0.8 µM). Further, the relative viability with Apatinib + Pemetrexed (first compound 2.53 µM) came out at 0.322; with Apatinib + Pemetrexed (first compound 8 µM), 0.199.
Regarding NCI-H2087, the relative viability came to 0.263 with Metformin + Palbociclib (first compound 10 µM); 0.226 with Metformin + Palbociclib (first compound 31.62 µM); 0.268 with Metformin + Palbociclib (first compound 100 µM); 0.218 in the assay with Metformin + Palbociclib (first compound 316.23 µM); 0.235 in the assay with Metformin + Palbociclib (first compound 1000 µM); 1.09 in the assay with Metformin + Alpelisib (first compound 10 µM). Also, the relative viability in the assay with Metformin + Alpelisib (first compound 31.62 µM) stood at 0.858; in the assay with Metformin + Alpelisib (first compound 100 µM) it was 1.05; in the assay with Metformin + Alpelisib (first compound 316.23 µM), 0.982; with Metformin + Alpelisib (first compound 1000 µM) it was 0.963; in the assay with Apatinib + Pictilisib (first compound 0.08 µM), 0.864; in the assay with Apatinib + Pictilisib (first compound 0.253 µM) it was 0.815. Also, the relative viability with Apatinib + Pictilisib (first compound 0.8 µM) worked out at 0.826; with Apatinib + Pictilisib (first compound 2.53 µM), 0.749; with Apatinib + Pictilisib (first compound 8 µM), 0.779; in the assay with Apatinib + Pemetrexed (first compound 0.08 µM), 0.657; with Apatinib + Pemetrexed (first compound 0.253 µM), 0.682; with Apatinib + Pemetrexed (first compound 0.8 µM) it was 0.65. Also, the relative viability with Apatinib + Pemetrexed (first compound 2.53 µM) turned out to be 0.619; with Apatinib + Pemetrexed (first compound 8 µM), 0.758.
For NCI-H647, the relative viability with Metformin + Palbociclib (first compound 10 µM) amounted to 0.222; with Metformin + Palbociclib (first compound 31.62 µM) it was 0.436; with Metformin + Palbociclib (first compound 100 µM) it was 0.555; in the assay with Metformin + Palbociclib (first compound 316.23 µM) it was 0.382; with Metformin + Palbociclib (first compound 1000 µM) it was 0.417; with Metformin + Alpelisib (first compound 10 µM), 1.07. The relative viability turned out to be 1.05 with Metformin + Alpelisib (first compound 31.62 µM); 1.08 with Metformin + Alpelisib (first compound 100 µM); 1.15 with Metformin + Alpelisib (first compound 316.23 µM); 1.21 in the assay with Metformin + Alpelisib (first compound 1000 µM); 0.492 with Apatinib + Pictilisib (first compound 0.08 µM); 0.5 with Apatinib + Pictilisib (first compound 0.253 µM). Further, the relative viability with Apatinib + Pictilisib (first compound 0.8 µM) is 0.419; with Apatinib + Pictilisib (first compound 2.53 µM), 0.349; in the assay with Apatinib + Pictilisib (first compound 8 µM) it was 0.395; with Apatinib + Pemetrexed (first compound 0.08 µM), 0.176; with Apatinib + Pemetrexed (first compound 0.253 µM) it was 0.172; in the assay with Apatinib + Pemetrexed (first compound 0.8 µM), 0.165. The figures for the relative viability with Apatinib + Pemetrexed (first compound 2.53 µM) and with Apatinib + Pemetrexed (first compound 8 µM) were 0.139 and 0.127, respectively.
